Test results from US20150258106A1, “METHODS FOR ACUTE AND LONG-TERM TREATMENT OF SUBSTANCE ABUSE” (DEMERX, INC., priority 2014, published 2015).

Test: Pharmacokinetics of noribogaine in healthy volunteers, ascending single oral dose (plasma noribogaine and noribogaine glucuronide)
Details: for AUC0-216 / AUC0-∞ / Cmax / Tmax / t1/2: healthy male volunteers, n = 6, mean (SD)
[1] = glucuronide in plasma after single oral 30 mg noribogaine dose
[2] = glucuronide in plasma after single oral 60 mg noribogaine dose
[3] = plasma noribogaine glucuronide, 30 mg and 60 mg dose groups

CC[C@H]1C[C@@H]2C[C@H]3c4[nH]c5ccc(OC6OC(C(=O)O)C(O)C(O)C6O)cc5c4CCN(C2)[C@@H]13 (some centres unmarked) [Noribogaine glucuronide, noribogaine glucuronide]
proportion of noribogaine glucuronide Cmax and AUC relative to noribogaine (both dose groups (30 mg, 60 mg)): 3-4%
AUC0-216 [1]: 25.7 (9.1) ng · hr/ml
AUC0-∞ [1]: 25.8 (9.3) ng · hr/ml
Cmax [1]: 1.8 (0.6) ng/ml
Tmax [1]: 3.0 (0.6) hr
t1/2 [1]: 20.6 (4.9) hr
AUC0-216 [2]: 65.0 (21.5) ng · hr/ml
AUC0-∞ [2]: 67.1 (21.9) ng · hr/ml
Cmax [2]: 4.1 (1.2) ng/ml
Tmax [2]: 3.8 (1.2) hr
t1/2 [2]: 23.1 (3.0) hr
Mean half-life [3]: 21 to 23 h
time of peak concentrations after noribogaine dosing [3]: 3 to 4 h
time by which noribogaine glucuronide was detected in all subjects (plasma, after 30 mg or 60 mg noribogaine dose): ≤ 0.75 h
